Experimental data as given in patent US10130651B2, “RNAi Therapy for Hepatitis B Virus Infection” (Arrowhead Pharmaceuticals, Inc., priority 2015, dated 2018).

What was measured:
Format in all cases: in vivo, NOD-SCID mice (pHBV model)
[1] = test system: HBV DNA, Hepatitis B Virus; assay: Serum HBV DNA in pHBV mice after MLP delivery peptide plus AD01385 and/or AD01386 (Example 10, Tables 19, 20); conditions: 3 mg/kg MLP delivery peptide plus […] of each RNAi trigger; for Mean HBV DNA in serum: single IV
HBsAg, Hepatitis B Virus [2] = assay: Serum HBsAg in pHBV mice after MLP delivery peptide plus AD01385 and/or AD01386 (Example 10, Tables 17, 18); conditions: 3 mg/kg MLP delivery peptide plus […] of each RNAi trigger; for Mean HBsAg in serum: single IV
HBsAg, Hepatitis B Virus [3] = assay: as above; conditions: 3 mg/kg MLP delivery peptide plus […] of each RNAi trigger; for Mean HBsAg in serum: single IV; remark: listed apart in the source
Description: At day −28, 6 to 8 week old female NOD.CB17-Prkdscid/NcrCrl (NOD-SCID) mice were transiently transfected in vivo with MC-HBV 1.3 by hydrodynamic tail vein injection as described.
CDM-NAG was added to MLP, SEQ ID NO: 650 (GIL MLP, L-form), in a 250 mM HEPES-buffered aqueous solution at a 5:1 (w/w) ratio at room temperature and incubated for 30 min to yield MLP delivery peptide. The reaction mixture was adjusted to pH 9.0 with 4 M NaOH. The extent of the reaction was assayed using 2,4,6-trinitrobenzene-sulfonic acid and determined to be >95%. MLP delivery peptide was purified by tangential flow in 10 mM bicarbonate buffer, pH 9.0, to which 10% dextran (w/w) was added. The final purified material was lyophilized.
5 mg lyophilized MLP delivery peptide was resuspended with 1 mL water. MLP delivery peptide was then combined with HBV RNAi triggers (AD01385 or AD01386) at the various dose levels.
At Day 1, each mouse was given a single IV administration via tail vein of 200 μl per 20 gram body weight of saline containing MLP delivery peptide+HBV RNAi triggers.
At various time points, before and after administration of MLP delivery peptide+HBV RNAi triggers, serum HBsAg and serum HBV DNA were measured. The HBsAg level in serum for each animal at a time point was divided by the pre-treatment level in that animal in order to determine the ratio of HBsAg in serum “normalized to pre-treatment”. The HBV DNA level in serum for each group at a time point was also divided by the pre-treatment level in that group in order to determine the ratio of HBV DNA in serum “normalized to pre-treatment”. In order to account for non-treatment related decline in expression of MC-HBV 1.3 or pHBV 1.3.—the “normalized to pre-treatment” ratio for an individual animal at a time point was then divided by the average “normalized to pre-treatment” ratio of all mice in the saline control group at the same time point to obtain the ratio of HBsAg, or HBV DNA, in serum “normalized to pre-treatment and control”.
Mice were anesthetized with 2-3% isoflurane and blood samples were collected from the submandibular area into serum separation tubes (Sarstedt AG & Co., Nümbrecht, Germany). Blood was allowed to coagulate at ambient temperature for 20 min. The tubes were centrifuged at 8,000×g for 3 min to separate the serum and stored at 4° C.
Serum Hepatitis B surface antigen (HBsAg) and Serum HBV DNA levels were measured as described.

| Substance | Mean HBV DNA in serum ([1]; day 5) | Mean HBV DNA in serum ([1]; day 8) | Mean HBV DNA in serum ([1]; day 15) | Mean HBV DNA in serum ([1]; day 22) | Mean HBV DNA in serum ([1]; day 29) | Mean HBV DNA in serum ([1]; day 36) | Mean HBV DNA in serum ([1]; day −2 (pre-dose)) | Mean HBV DNA in serum (normalized to pre-dose and saline control group) ([1]; day 5) | Mean HBV DNA in serum (normalized to pre-dose and saline control group) ([1]; day 8) | Mean HBV DNA in serum (normalized to pre-dose and saline control group) ([1]; day 15) | Mean HBV DNA in serum (normalized to pre-dose and saline control group) ([1]; day 22) | Mean HBV DNA in serum (normalized to pre-dose and saline control group) ([1]; day 29) | Mean HBV DNA in serum (normalized to pre-dose and saline control group) ([1]; day 36) | Mean HBV DNA in serum (normalized to pre-dose and saline control group) ([1]; day −2 (pre-dose)) | Mean HBsAg in serum (HBsAg, Hepatitis B Virus [2]; day 8) | Mean HBsAg in serum (HBsAg, Hepatitis B Virus [2]; day 15) | Mean HBsAg in serum (HBsAg, Hepatitis B Virus [2]; day 29) | Mean HBsAg in serum (HBsAg, Hepatitis B Virus [2]; day −2 (pre-dose)) | HBsAg in serum (mean ± SD) (normalized to pre-dose and saline control group) (HBsAg, Hepatitis B Virus [2]; day 36) | HBsAg in serum (mean ± SD) (normalized to pre-dose and saline control group) (HBsAg, Hepatitis B Virus [2]; day −2 (pre-dose)) | further results |
| --- | --- | --- | --- | --- | --- | --- | --- | --- | --- | --- | --- | --- | --- | --- | --- | --- | --- | --- | --- | --- | --- |
| AD01385: duplex AM02315-AS/AM02319-SS (TEG) (antisense TAUGAUAAAACGCCGCAGATT; sense UAUUCUGCGGCGUUUUAUCAUAT; siRNA; TEG, chemistry not fully specified) | 9.84 × 10^6 copies/mL | 1.64 × 10^7 copies/mL | 7.69 × 10^7 copies/mL | 7.60 × 10^7 copies/mL | 7.69 × 10^7 copies/mL | 6.91 × 10^7 copies/mL | 2.04 × 10^8 copies/mL | 0.050 ± 0.000 | 0.087 ± 0.020 | 0.474 ± 0.029 | 0.510 ± 0.074 | 0.571 ± 0.034 | 0.582 ± 0.040 | 1.000 ± 0.000 | 1905 ± 1232 ng/mL | 2309 ± 1315 ng/mL | 2418 ± 1470 ng/mL | 7218 ± 4071 ng/mL | 0.592 ± 0.140 | 1.000 ± 0.000 | Mean HBsAg in serum (HBsAg, Hepatitis B Virus [3]; day 5): 878 ± 697 ng/mL; Mean HBsAg in serum (HBsAg, Hepatitis B Virus [3]; day 22): 2163 ± 1255 ng/mL; Mean HBsAg in serum (HBsAg, Hepatitis B Virus [3]; day 36): 2067 ± 870 ng/mL; HBsAg in serum (mean ± SD) (normalized to pre-dose and saline control group) (HBsAg, Hepatitis B Virus [3]; day 5): 0.108 ± 0.026; HBsAg in serum (mean ± SD) (normalized to pre-dose and saline control group) (HBsAg, Hepatitis B Virus [3]; day 8): 0.282 ± 0.030; HBsAg in serum (mean ± SD) (normalized to pre-dose and saline control group) (HBsAg, Hepatitis B Virus [3]; day 15): 0.665 ± 0.135; HBsAg in serum (mean ± SD) (normalized to pre-dose and saline control group) (HBsAg, Hepatitis B Virus [3]; day 22): 0.589 ± 0.109; HBsAg in serum (mean ± SD) (normalized to pre-dose and saline control group) (HBsAg, Hepatitis B Virus [3]; day 29): 0.660 ± 0.175 |
| AD01386: duplex AM02312-AS/AM02320-SS (C6) (antisense TACCAAUUUAUGCCUACAGTT; sense UAUCUGUAGGCAUAAAUUGGUAT; siRNA; C6, chemistry not fully specified) | 4.42 × 10^6 copies/mL | 2.37 × 10^6 copies/mL | 1.04 × 10^8 copies/mL | 4.94 × 10^7 copies/mL | 1.04 × 10^8 copies/mL | 9.53 × 10^7 copies/mL | 2.24 × 10^8 copies/mL | 0.020 ± 0.002 | 0.011 ± 0.002 | 0.153 ± 0.004 | 0.303 ± 0.048 | 0.710 ± 0.080 | 0.728 ± 0.022 | 1.000 ± 0.000 | 109 ± 120 ng/mL | 273 ± 321 ng/mL | 1627 ± 1487 ng/mL | 6219 ± 5606 ng/mL | 0.808 ± 0.151 | 1.000 ± 0.000 | Mean HBsAg in serum (HBsAg, Hepatitis B Virus [3]; day 5): 125 ± 98 ng/mL; Mean HBsAg in serum (HBsAg, Hepatitis B Virus [3]; day 22): 738 ± 670 ng/mL; Mean HBsAg in serum (HBsAg, Hepatitis B Virus [3]; day 36): 2252 ± 1565 ng/mL; HBsAg in serum (mean ± SD) (normalized to pre-dose and saline control group) (HBsAg, Hepatitis B Virus [3]; day 5): 0.021 ± 0.007; HBsAg in serum (mean ± SD) (normalized to pre-dose and saline control group) (HBsAg, Hepatitis B Virus [3]; day 8): 0.016 ± 0.008; HBsAg in serum (mean ± SD) (normalized to pre-dose and saline control group) (HBsAg, Hepatitis B Virus [3]; day 15): 0.078 ± 0.027; HBsAg in serum (mean ± SD) (normalized to pre-dose and saline control group) (HBsAg, Hepatitis B Virus [3]; day 22): 0.237 ± 0.041; HBsAg in serum (mean ± SD) (normalized to pre-dose and saline control group) (HBsAg, Hepatitis B Virus [3]; day 29): 0.526 ± 0.045 |
